We go through 93 compounds from PubChem BioAssay AID1417 (Emory University Molecular Libraries Screening Center, 2008).

The target of this test is Induced myeloid leukemia cell differentiation protein Mcl-1 (Homo sapiens) (UniProt Q07820). As to the kind of experiment: Mcl-1/Noxa binding inhibitor potency, dose response, biochemical, TR-FRET (AID 1417). Particulars: Mcl-1/Noxa peptide interaction, cell-free TR-FRET (terbium/rhodamine), 2 h; measured here: absolute IC50.
Chain of Induced myeloid leukemia cell differentiation protein Mcl-1 (Homo sapiens) (Q07820 whole entry, looked up): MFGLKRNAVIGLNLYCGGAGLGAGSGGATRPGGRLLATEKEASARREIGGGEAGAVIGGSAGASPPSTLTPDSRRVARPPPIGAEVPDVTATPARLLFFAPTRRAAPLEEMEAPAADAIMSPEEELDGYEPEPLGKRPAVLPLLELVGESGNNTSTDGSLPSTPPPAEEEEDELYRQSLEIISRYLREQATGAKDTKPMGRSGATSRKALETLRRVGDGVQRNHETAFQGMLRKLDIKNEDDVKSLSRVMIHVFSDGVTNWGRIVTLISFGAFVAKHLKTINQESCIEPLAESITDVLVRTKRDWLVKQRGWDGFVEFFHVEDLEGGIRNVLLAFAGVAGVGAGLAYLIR
A word on the IC50: it is the concentration at which inhibition is half-maximal. A high value points to weaker potency in that assay. Consider `CCn1c(C)cc(/C=C2\NC(=O)N(Cc3ccc(Cl)cc3)C2=O)c1C`, for which the IC50 turned out to be 7.52 µM. `COc1ccc(C2=CC(=O)C=CC2=O)cc1` gave a concentration for half-maximal inhibition (IC50) of under 0.4 µM. With `Cc1cc2nc(-c3ccc(SCC(=O)N4CCN(C(=O)c5ccco5)CC4)nc3)[nH]c2cc1C`, the IC50 amounted to 4.16 µM.

`Nc1ccc(Cc2ccc(N)c(O)c2)cc1O` gave an IC50 of under 0.4 µM. The same measure for `CCOC(=O)c1c(CSc2ccc(C)cc2)n(C)c2cc(Br)c(O)c(CN(C)C)c12`: 3.33 µM; for `Cc1ccc(/C=C2/SC(=O)NC2=S)o1`: 4.11 µM. As for `COc1cc(/C=N/NC(=O)C(Cc2c[nH]c3ccccc23)NC(=O)OCc2ccccc2)cc([N+](=O)[O-])c1O` (stereo not drawn), the IC50 was 4.82 µM. This IC50 and that of the compound before are within 1.5-fold of each other. The same measure for `CCOC(=O)C1=C(C)NC2=C(C(=O)CC(C)(C)C2)C1c1ccc2c(c1)CCCN2C` (stereo not drawn): over 54 µM. As for `O=C(COC(=O)c1cc(-c2ccco2)nc2ccccc12)NCc1ccc2c(c1)OCO2`, the figure is 29.4 µM.

As for `COc1ccc(-c2ccc(/C=C3/C(=N)N4C=CSC4=NC3=O)o2)c([N+](=O)[O-])c1`, the IC50 was 1.66 µM. Turning to `Cc1cccc(N=C2NC(=O)/C(=C/C=C/c3ccco3)S2)c1`, the IC50 stood at 13.5 µM. In turn, `O=C(O)CCCN1C(=O)/C(=C/c2cn(-c3ccccc3)nc2-c2cccs2)SC1=S` displayed an IC50 of 1.54 µM. This IC50 lies about 8.8-fold lower than the previous one. The same measure for `CCOc1cc(CNc2ccc(N3CCCC3)cc2)cc(Cl)c1OC`: over 54 µM; for `O=C1c2cccc3cc([N+](=O)[O-])cc(c23)C(=O)N1/N=C/c1ccc(O)cc1O`: 1.52 µM. `O=C(Nc1nc(-c2ccco2)c(-c2ccco2)s1)C1CC(=O)N(c2ccc3c(c2)OCCO3)C1` (stereo not drawn) registered an IC50 of 5.49 µM. The same measure for `CC1=NNC(=O)C1CC(=O)N/N=C(\C)c1ccco1` (stereo not drawn): over 54 µM; for `COc1cc(O)c(C(=O)O)c(-c2cc(O)c(O)cc2C)c1`: under 0.4 µM. As for `O=C(NCCCO)c1ccc2nc(-c3ccco3)c(-c3ccco3)nc2c1`, the figure is over 54 µM; as for `CC1Oc2cc3c(-c4c(O)cc(O)c5c(O)c6c(cc45)OC(C)C(C)C6=O)c(O)cc(O)c3c(O)c2C(=O)C1C` (stereo not drawn), under 0.4 µM. As for `CN(C)c1ccc(NS(=O)(=O)c2cccc(Cl)c2)cc1`, the figure is over 54 µM; as for `Cc1cc2c(C(C)C)c(O)c(O)c(C=O)c2c(O)c1-c1c(C)cc2c(C(C)C)c(O)c(O)c(C=O)c2c1O`, under 0.4 µM. With `CCN(c1ccc(NC(=O)CCNC(=O)c2ccco2)cc1)C(C)C`, the half-inhibitory concentration (IC50) was over 54 µM. As for `C=CCn1c(N2CCCCCC2)nc2c1c(=O)n(C)c(=O)n2C`, the figure is over 54 µM; as for `Cc1cc(C(=O)OCC(=O)Nc2sc3c(c2C#N)CCC(C)C3)c2ccccc2n1` (stereo not drawn), 4.27 µM; as for `COc1cc(/C=C2\SC(=O)NC2=O)ccc1Oc1ccc([N+](=O)[O-])cc1[N+](=O)[O-]`, 3.29 µM. The same measure for `Oc1ccccc1NCC(O)Cn1ccc2ccccc21` (stereo not drawn): 5.23 µM; for `Cc1cccc(NC(=O)CSc2nnc(-c3ccco3)c(-c3ccco3)n2)c1C`: 6.47 µM. The same measure for `COc1ccccc1N1C(=O)C2ON(c3ccccc3)C(c3ccc(N(C)C)cc3)C2C1=O` (stereo not drawn): over 54 µM; for `N=c1c(C(=O)NCc2ccc(F)cc2)cc2c(=O)n3ccccc3nc2n1Cc1cccnc1`: 3.21 µM; for `CNc1ccc(Br)cc(C(=O)/C=C/c2cccc(Cl)c2Cl)c1=O`: 0.439 µM. With `O=C(O)c1ccccc1N/N=C/c1cc(Br)cc(Br)c1O`, the IC50 came to 7.51 µM. As for `COc1ccc(-c2ccc3c(n2)sc2c(=O)[nH]c(=O)[nH]c23)cc1OC`, the figure is under 0.4 µM; as for `CCOc1ccccc1Nc1nc(-c2sc(NC(=O)c3ccc([N+](=O)[O-])cc3)nc2C)cs1`, under 0.4 µM. Consider `COc1ccc2[nH]c3c(=O)n(Cc4ccc(C(=O)N5CCCC5)cc4)c(=S)[nH]c3c2c1`, for which the IC50 was over 54 µM.

On to `Cc1ccc(NS(=O)(=O)c2cc([N+](=O)[O-])ccc2NNC(=S)Nc2cccc(Cl)c2)c(C)c1`, for which the IC50 is over 54 µM. As for `Cc1c(C(=O)N/N=C/c2ccc(-c3ccccc3[N+](=O)[O-])o2)sc(N)c1C#N`, the figure is 1.69 µM. The same measure for `O=C(Nc1ccc2nc(-c3ccc4nc[nH]c4c3)[nH]c2c1)c1cccs1`: 2.7 µM; for `COc1ccc(OCC(=O)Nc2nnc(-c3ccco3)s2)cc1`: 3.81 µM. Consider `O=C1/C(=C/c2ccc(O)c(O)c2)Oc2cc(O)ccc21`, for which the half-inhibitory concentration (IC50) worked out at 1.16 µM.

Compound `CN1CCN(c2ccc([N+](=O)[O-])cc2/C=N/NC(=O)c2cccc([N+](=O)[O-])c2)CC1` showed an IC50 of 1.42 µM.

`Cc1cc(C(=O)COC(=O)c2cc(O)c3ccccc3c2O)c(C)n1CC1CCCO1` (stereo not drawn) came in with an IC50 of under 0.4 µM. As for `Cc1ccc2c(c1)C1C=CCC1C(C(=O)O)N2` (stereo not drawn), the figure is under 0.4 µM. The same measure for `Cc1c2c(=O)n(-c3nc4ccccc4s3)nc-2cc(O)n1Cc1ccccc1`: 5.62 µM; for `CC(=O)Nc1ccc(C(=O)Nc2cccc(-c3cnc4ccccc4n3)c2)cc1`: over 54 µM. As for `Oc1ccc(/C=N/Nc2ccnc3cc(Cl)ccc23)c(O)c1`, the figure is under 0.4 µM; as for `O=C(/C=C/c1cccs1)N1CCN(c2ccc(O)cc2)CC1`, 3.64 µM; as for `O=C1NN(c2ccc(Cl)c(Cl)c2)C(=O)/C1=C/c1cccc(OC(=O)c2cccs2)c1`, 4.13 µM.

With `Cc1cc(N/N=C/c2ccc(O)c(C)c2O)nc(-c2ccccc2O)n1`, the IC50 turned out to be 3.66 µM.

As to `O=C1OC(c2cccs2)=N/C1=C/c1ccc(-c2cccc(C(=O)O)c2)o1`, the half-inhibitory concentration (IC50) is over 54 µM.

With `COc1cc(-c2nnc(SCc3cc(=O)oc4cc(O)c(O)cc34)o2)cc(OC)c1OC`, the half-maximal inhibitory concentration (IC50) was under 0.4 µM. As for `Nc1nc(N)c2cc(Sc3ccc4ccccc4c3)ccc2n1`, the figure is 4.06 µM; as for `COc1ccc2c(=O)c3c(=O)n(-c4ccc(C)cc4)c(-c4ccccc4)nc3oc2c1`, over 54 µM; as for `COc1ccc(C(=O)C[n+]2ccc(-c3nnc4n3CCCCC4)cc2)cc1`, 23.1 µM. As for `CC(=O)Nc1sc(N/N=C\c2ccc(O)cc2)nc1-c1cccs1`, the figure is 1.07 µM. As for `Cc1cc(NC(=O)CSc2nc(-c3ccc(F)cc3)cs2)no1`, the figure is over 54 µM. As to `O=C(O)C1Nc2c(O)cc(Cl)c([N+](=O)[O-])c2C2C=CCC12` (stereo not drawn), the 50% inhibitory concentration (IC50) was under 0.4 µM. In turn, `COc1ccc(Cc2nnc(NC(=O)Cc3cccs3)s2)cc1` had a 50% inhibitory concentration (IC50) of under 0.4 µM. In turn, `Cc1nn(CC(=O)Nc2ccc(N(C)C)cc2)c(C)c1[N+](=O)[O-]` displayed a half-inhibitory concentration (IC50) of over 54 µM. The same measure for `CCOC(=O)c1ccc(N=Nc2c(C)c(C#N)c(O)[nH]c2=O)cc1`: 2.84 µM; for `Cc1ccc(N2C(=O)NC(=O)/C(=C/c3ccoc3)C2=O)cc1`: 4.36 µM. `COc1cccc(C(=O)Nc2ccc3nc(N4CCN(c5ncccn5)CC4)cc(C)c3c2)c1OC` yielded an IC50 of 8.07 µM. This IC50 lies about 1.9-fold higher than the previous one. As for `C=C(C)C(=O)Nc1cccc(C2=NOC3(C2)C[C@@H](C(N)=O)N(C(=O)/C(C)=C/C)C3)c1` (stereo partly drawn), the figure is over 54 µM. The same measure for `O=c1oc2ccccc2c(O)c1/C=C1\C=Nc2ccccc21`: 4.8 µM. In the case of `O=C(O)c1cc(N2N=C(C(F)(F)F)/C(=C/C=C/c3ccco3)C2=O)ccc1Cl`, the concentration for half-maximal inhibition (IC50) was under 0.4 µM.

`Cc1ccc2c(c1)C1CN(C)CCC1N2C(=O)Nc1cccc(Cl)c1` (stereo not drawn) showed an IC50 of over 54 µM. Consider `CCCCCn1c(N)c(-c2nc3ccccc3o2)c2c([N+](=O)[O-])nn(CC)c(=O)c21`, for which the IC50 was found to be 2.8 µM. The same measure for `O=C(c1ccccc1)c1ccc2nc(-c3ccco3)c(-c3ccco3)nc2c1`: 4.34 µM; for `O=C(Cc1cccs1)N/N=C/C=C\c1ccco1`: over 54 µM. The same measure for `CCN(c1ccc(NC(=O)COC(=O)c2ccc(C)c(S(=O)(=O)N3CCOCC3)c2)cc1)C(C)C`: over 54 µM; for `Nc1ncnc2oc(-c3ccco3)c(-c3ccco3)c12`: 3.7 µM. The same measure for `COc1ccc(C(=O)Nc2nc3c(s2)Cc2cc(OC)ccc2-3)cc1`: 4.11 µM; for `CCNC(=O)COC(=O)c1cc(-c2ccco2)nc2ccccc12`: 1.81 µM. The compound `Cc1ccc(OCC(=O)Nc2ccc(N3CCCC3)cc2)cc1C` returned a half-inhibitory concentration (IC50) of 7.07 µM. As for `Cc1nnc(Sc2cc(NCCCO)c([N+](=O)[O-])c3nonc23)s1`, the figure is 1.05 µM; as for `C=CCc1c(C)nc(SCCC)[nH]c1=O`, over 54 µM; as for `Cc1ccc(NC(=O)CN2C(=O)S/C(=C\c3cccn3-c3cccc(C(=O)O)c3)C2=O)c(C)c1`, 13.1 µM. As for `C=CCOC(=O)c1cc(-c2ccc(/C=C3\C(=O)NC(=O)C(C#N)=C3C)o2)ccc1Cl`, the figure is under 0.4 µM; as for `COCCN=c1scc(-c2ccco2)n1/N=C/c1ccc(O)c(O)c1O`, under 0.4 µM.

In the case of `CCOc1ccc(NC(=O)N(CCN2CCOCC2)Cc2ccc3c(c2)CCCN3CC)cc1`, the IC50 was determined as 0.953 µM.

Compound `COc1ccc(/C=C2/SC(=O)N(CCC(=O)Nc3ccc(S(=O)(=O)Nc4nccs4)cc3)C2=O)cc1` showed an IC50 of 3.81 µM. This IC50 is about 4-fold higher than that of the compound before. The same measure for `O=c1c2c3nc4ccccc4nc3n(Cc3ccccc3)c2ncn1Cc1ccco1`: over 54 µM; for `COc1cc(/C=N/NC(=O)C2c3ccccc3Oc3ccccc32)ccc1O`: 6.68 µM.

`CSc1nc(SCCO)c2sc3nc(-c4ccco4)c4c(c3c2n1)CC(C)(C)OC4` had a half-maximal inhibitory concentration (IC50) of under 0.4 µM.

As for `NC(=O)c1nn(CC(=O)Nc2ccc3c(c2)OCO3)cc1[N+](=O)[O-]`, the IC50 was over 54 µM. The same measure for `CCC(C)(C)n1nnnc1C(c1ccc(O)c(OC)c1)N1CCc2ccccc2C1` (stereo not drawn): under 0.4 µM; for `CC(C)c1ccc(S(=O)(=O)/N=C2/C=CC(=O)c3ccccc32)cc1`: under 0.4 µM; for `Cc1ccc(/C=C/C(=O)NCc2ccccn2)o1`: 4.93 µM. The same measure for `CCN(CC)c1ccc(NC(=O)Nc2ccc(C(C)=O)cc2)cc1`: over 54 µM; for `CCOc1ccc2nc(NC(=O)c3cccc(-c4cc5ccccc5oc4=O)c3)sc2c1`: 3.75 µM.

In turn, `O=[N+]([O-])c1c(NCCO)cc(Sc2nc3ccccc3s2)c2nonc12` showed a half-inhibitory concentration (IC50) of over 54 µM. As for `CC(/C=C1\SC(=S)N(NS(=O)(=O)c2ccccc2)C1=O)=C\c1ccccc1`, the figure is 17.9 µM; as for `CCOC(=O)c1[nH]c2c(c1C)C(=O)CC(c1ccco1)C2` (stereo not drawn), 5.64 µM.

Take `N#CC1=C(N)N(c2ccc(F)cc2)C2=C(C1c1ccc(O)cc1)S(=O)(=O)CC2` (stereo not drawn): the IC50 stood at 3.4 µM.
